Experimental data: US11311598B2, “Peptides and analogs for use in the treatment of oral mucositis” (Soligenix, Inc., priority 2013, dated 2022)
Where no end group is shown, it is not given here.

What was measured:
MRSA = MRSA skin infection model; assay type: in vivo, mouse
Procedure: Infection was initiated 1 day after the hair was removed from the dorsal area of each mouse. RIVPA (SEQ ID NO. 5) (25 mg/kg IV or 100 mg/kg SC) was administered 4 h prior to infection and at various times after infection as indicated. Oral linezolid was used as the comparator and was administered daily at 12.5 mg/kg. On Day 0 (at −1 h) each mouse was anesthetized using isoflurane and the shaved dorsal skin was damaged by 7 consecutive applications and removals of surgical tape. This lesion was then immediately infected by topical administration of 10 μL of the bacterial suspension, delivering a total challenge of 7.6 login cfu per mouse. Efficacy was evaluated by measurement of the bacterial burden in punch biopsies of the skin at 48 h (FIG. 14—panel A) and 96 h (FIG. 14—panel B) following the bacterial challenge and by macroscopic assessment of digital images of the skin by a blinded, board-certified pathologist at 48 h (FIG. 14—panel C) and 96 h (FIG. 14—panel D) after infection. […] The mean bacterial burden for each therapeutic group was statistically compared to that of its time-matched saline control through use of a t-test comparison of means, assuming unequal variances, performed on Excel. Comparisons which returned a p value […] were considered statistically different.

[1] = tested on: Gram-positive and Gram-negative infections; settings: mouse, in vivo
CD-1 mice = assay: recovery of circulating blood cells after induction of leukopenia; assay type: in vivo, mouse; settings: Cp-induced leukopenia, 20 or 50 mg/kg IV on Days 5, 7, 9 and 11
Procedure: Leukopenia was induced with 2 IP injections of Cp (150 mg/kg on Day 1 and 100 mg/kg on Day 4), resulting in well-established leukopenia by Day 4 that persisted until approximately Day 10. Saline or RIVPA (SEQ ID NO. 5) (20 or 50 mg/kg) was administered IV on Days 5, 7, 9 and 11. Six animals per group were sacrificed on each of Days 6, 8, 10, 12 and 14 and evaluated for complete blood count and differential. Neither the levels nor dynamics of the total leukocyte and differential white blood cell counts were altered during the course of recovery when compared to the vehicle control group (FIG. 15).

[2] = tested on: male Golden Syrian hamsters; assay: radiation-induced oral mucositis in hamsters (fractionated radiation); assay type: in vivo, hamster; settings: for duration of severe oral mucositis: fractionated radiation model
Procedure: These studies confirmed that optimal dosing of RIVPA (SEQ ID NO. 5) involves dosing every third day and that the 25 mg/kg dose level is effective. In this model, cannulated male Golden Syrian hamsters were treated with 7.5 Gy of radiation, directed at the everted left cheek pouch, on Days 0, 1, 2, 3, 6, 7, 8 and 9. Mucositis was evaluated every second day between Days 7 and 35, with peak mucositis severity generally occurring around Day 19. In the first study, RIVPA (SEQ ID NO. 5) (25 mg/kg IV) was administered either every third day starting on Day 0 and continuing until Day 33 (Q3d d0-33), or on days of radiation therapy (Days 0, 1, 2, 3, […], 7, 8, 9) or every third day starting on Day 6 and continuing to Day 24 (Q3d d6-24). On days where both RIVPA (SEQ ID NO. 5) and radiation was administered, RIVPA (SEQ ID NO. 5) was given 2 hours after radiation. […] A follow-up study was undertaken to evaluate dosing with 25 mg/kg IV RIVPA (SEQ ID NO. 5) Q3d d0-33, on days of radiation, or every third day during radiation treatment (i.e., Days 0, 3, 6 and 9).

S. aureus = S. aureus infection studies, single IV RIVPA treatment (Table 2 summary); assay type: in vivo, mouse; settings: for % Successful Treatments Any Dose Schedule: success = at least 20% increase in survival over saline control
[3] = tested on: primary human leukemia cells; assay: proliferation of primary human leukemia cells in vitro; assay type: cell-based
[4] = tested on: central nervous system (CNS); assay: effects on the central nervous system in any study; assay type: in vivo; settings: any study at any dose level
Procedure: No effects of RIVPA (SEQ ID NO. 5) have been observed on the central nervous system (CNS) in any study at any dose level and little or no radiolabelled RIVPA (SEQ ID NO. 5) was found in the mouse CNS at dose levels of either 20 or 90 mg/kg.

[5] = mice
[6] = tested on: S. aureus (Catalog No. 29213, ATCC); assay: S. aureus thigh abscess infection model in neutropenic mice; assay type: in vivo, mouse; settings: neutropenic female Swiss albino mice, 50 mg/kg IM 24 h prior to infection; 24 h after infection
Procedure: Female Swiss albino mice (N=8/group) were rendered neutropenic by treatment with Cp (100 mg/kg), 3 and 1 days before IM infection with S. aureus (Catalog No. 29213, ATCC, ^˜9.5×10^5 cfu). RIVPA (SEQ ID NO. 5) (50 mg/kg) was administered IM 24 h prior to infection and vancomycin (100 mg/kg) was administered SC at 1, 6 and 18 h after infection. The number of bacterial cfu present in the infected thigh was assessed 24 h after initiation of infection in each group.

MRSA (USA300) = assay type: in vivo, mouse
Procedure: Multiple studies with IV administered RIVPA (SEQ ID NO. 5) were conducted in a MRSA bacteremia model. […] In the first study, MRSA (USA300, 7.3 log 10 cfu) was administered via IV injection into the tail vein of female Balb/c mice at time 0. Four hours prior to infection, a single dose of saline or RIVPA (SEQ ID NO. 5) at the indicated dose levels was injected IV into the tail vein. Sub-optimal antibiotic treatment (linezolid, 6.25 mg/kg) was administered once orally immediately after infection. Survival was monitored for 21 days after the infection. In the second study, RIVPA (SEQ ID NO. 5) (IV) or saline (IV) was administered once 4 h prior to infection with MRSA (strain USA300, 7.0 log10 cfu) via the tail vein into female nu/nu mice.

In the case of RIVPA-NH2 [RIVPA (SEQ ID NO. 5), RIVPA], the skin healing (MRSA; 25 mg/kg IV or 100 mg/kg SC, 4 h prior to infection and after) is reported as “accelerating skin healing”, the “bacterial load in skin punch biopsies relative to control” value (MRSA; 48 or 96 h after bacterial challenge) is reported as “neither linezolid nor RIVPA (SEQ ID NO. 5) reduced bacterial load” and the “resolution of tissue damage in topically MRSA-infected skin” value (MRSA; FIG. 14) is reported as “enhances”. For the same substance, the “duration of pharmacodynamic effect” value [1] was “up to 5 days”, the “dose levels with consistent efficacy” value ([1]; iv) was no less than 25 mg/kg and the “recovery of circulating blood cell populations after induction of leukopenia” value (CD-1 mice) was “did not alter”. The “treatment effectiveness on mucositis” value ([2]; first study, 25 mg/kg IV every third day Day 0 to Day 33 (Q3d d0-33)) was “most effective”, the “treatment effectiveness on mucositis” value ([2]; first study, 25 mg/kg IV every third day Day 6 to Day 24 (Q3d d6-24)) was “not beneficial” and the “treatment effectiveness on mucositis” value ([2]; first study, 25 mg/kg IV on days of radiation) was “most effective”. For the same substance, the “treatment effectiveness on mucositis” value ([2]; follow-up study, 25 mg/kg IV every third day during radiation (Days 0, 3, 6 and 9)) was “optimal”, the “duration of severe oral mucositis” value ([2]; FIG. 1) was “reduces” and the “duration of severe oral mucositis” value ([2]; optimized dosing regimen, FIG. 2) was “reduces”. The “severity and duration of mucositis” value ([2]; hamster, 7.5 Gy to left cheek pouch on Days 0, 1, 2, 3, 6, 7, 8 and 9, RIVPA IV) was “significantly reduced”, the “dose dependence of effects” value (S. aureus; between 1 and 50 mg/kg in mouse) was “dose dependent” and the “dose levels consistently demonstrating efficacy” value (S. aureus; mouse, stand-alone IV) was no less than 25 mg/kg. The “% Successful Treatments RIVPA administered 4 h prior to infection” value (S. aureus; single IV dose 1 mg/kg) was 0%, the “% Successful Treatments Any Dose Schedule” value (S. aureus; single IV dose 1 mg/kg) was 0% and the “% Successful Treatments RIVPA administered 4 h prior to infection” value (S. aureus; single IV dose 5 mg/kg) was 33%. The “% Successful Treatments Any Dose Schedule” value (S. aureus; single IV dose 5 mg/kg) was 42%, the “% Successful Treatments RIVPA administered 4 h prior to infection” value (S. aureus; single IV dose 25 mg/kg) was 50% and the “% Successful Treatments Any Dose Schedule” value (S. aureus; single IV dose 25 mg/kg) was 67%. For the same substance, the “% Successful Treatments RIVPA administered 4 h prior to infection” value (S. aureus; single IV dose 50 mg/kg) was 100%, the “% Successful Treatments Any Dose Schedule” value (S. aureus; single IV dose 50 mg/kg) was 100% and the “proliferation of primary leukemia cells” value [3] was “did not promote the proliferation”. The “effects on the central nervous system (CNS)” value [4] was “No effects”, the “PK clearance from the circulation” value [5] was “within minutes” and the “bacterial load in the infected thigh” value [6] was “significantly reduced”. For the same substance, the “duration for which the survival benefit is sustained” value (MRSA (USA300); FIG. 9) was “at least 21 days”, the “time after initiation of infection at which administration still confers a survival benefit” value (MRSA (USA300); MRSA bacteremia model (data not shown)) was “up to 24 h” and the “time prior to initiation of infection at which a single dose still confers a survival benefit” value (MRSA (USA300); depending on dose level (data not shown)) was “up to 5 days”. For the same substance, the “survival over the saline control” value (MRSA (USA300); female Balb/c mice, single dose 50 mg/kg IV 4 h prior to infection, linezolid 6.25 mg/kg oral, 21 days) was “statistically significant enhanced survival”.
